Data as given in PMC3131678 (Interdisciplinary Toxicology, 2011).
Like-named read-outs stand apart in the source and are kept apart here.

Legend:
CYP1A2 [1] = molecular target: T1, CYP1A2 (Sus scrofa, UniProt F1SJ26); assay: Inhibition of 7-methoxyresorufin O-demethylase (MROD) activity in porcine hepatic microsomes
T1 sequence (F1SJ26 1-516): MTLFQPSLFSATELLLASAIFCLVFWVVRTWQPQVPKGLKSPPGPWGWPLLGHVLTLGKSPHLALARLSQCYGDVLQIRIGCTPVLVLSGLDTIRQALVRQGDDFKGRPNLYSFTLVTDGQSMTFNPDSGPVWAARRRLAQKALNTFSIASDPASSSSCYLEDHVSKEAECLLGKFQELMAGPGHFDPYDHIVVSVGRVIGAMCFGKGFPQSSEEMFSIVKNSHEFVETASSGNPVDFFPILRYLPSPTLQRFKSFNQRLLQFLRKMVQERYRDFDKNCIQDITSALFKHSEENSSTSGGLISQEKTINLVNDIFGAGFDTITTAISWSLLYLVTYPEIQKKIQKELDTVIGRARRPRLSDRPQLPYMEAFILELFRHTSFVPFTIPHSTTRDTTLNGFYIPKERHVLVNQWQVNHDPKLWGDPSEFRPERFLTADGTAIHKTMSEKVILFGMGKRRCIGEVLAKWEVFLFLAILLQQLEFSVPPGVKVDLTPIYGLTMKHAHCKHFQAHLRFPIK
Experimental: (§1) All procedures were done on ice.
(§2) All steroids were dissolved in methanol. […] Kinetic studies were performed under linear conditions.
(§3) The activities were measured in pooled microsomes, thus taking into consideration between-individual variations in enzyme activities and potential response to the presence of steroids.

CYP1A1 [2] = assay: Inhibition of 7-ethoxyresorufin O-deethylase (EROD) activity in porcine hepatic microsomes
Experimental: as §1, §2, §3

CYP1A1 [3] = system: CYP1A1; design: method as in Zamaratskaia et al., [2009]; conditions: 1.8 to 72 pmol/ml; microsomes from entire and castrated male pigs; ref Zamaratskaia et al., [2009]; cited from earlier work
CYP2E1 [4] = molecular target: T2, CYP2E1 (Sus scrofa, UniProt P79383); conditions: cited from earlier work
T2 sequence (P79383 whole entry): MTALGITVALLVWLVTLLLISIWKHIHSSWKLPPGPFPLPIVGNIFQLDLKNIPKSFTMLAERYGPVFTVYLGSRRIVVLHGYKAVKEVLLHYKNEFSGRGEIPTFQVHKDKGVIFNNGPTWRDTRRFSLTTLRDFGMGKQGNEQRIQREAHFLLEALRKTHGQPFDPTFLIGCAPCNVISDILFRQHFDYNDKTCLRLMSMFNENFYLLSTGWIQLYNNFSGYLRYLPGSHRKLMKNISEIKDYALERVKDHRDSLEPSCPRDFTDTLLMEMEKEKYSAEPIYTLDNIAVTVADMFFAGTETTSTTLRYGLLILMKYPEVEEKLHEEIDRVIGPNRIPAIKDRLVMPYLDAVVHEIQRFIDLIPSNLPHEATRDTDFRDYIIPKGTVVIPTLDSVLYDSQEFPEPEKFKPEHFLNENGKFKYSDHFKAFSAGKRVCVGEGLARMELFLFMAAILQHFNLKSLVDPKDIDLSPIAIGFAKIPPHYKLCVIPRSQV

CYP2E1 [5] = molecular target: T2, CYP2E1; assay: Inhibition of p-nitrophenol hydroxylase (PNPH) activity in porcine hepatic microsomes
Experimental: as §1, §2, §3

CYP1A2 [6] = molecular target: T1, CYP1A2
Experimental: as §1, §2

CYP1A1 [7] = assay: Enzyme kinetic analysis of EROD (resorufin formation from 7-ethoxyresorufin) in porcine hepatic microsomes; assay type: in vitro ADME; conditions: CI 95% confidence interval
Experimental: as §1, §2
V=(Vmax1*S)/(Km1+S)+(V max2*S)/(Km2+S),
where Km1 and Km2 are Michaelis constants for the high- and low-affinity components, respectively, and Vmax1 and Vmax2 are the maximum reaction velocities for the high- and low-affinity components, respectively.

[8] = 100 µM steroid, pooled microsomes from three entire male pigs, altered = differs from control by at least 30%
[9] = lower concentrations (0.02 and 1.0 µM), pooled microsomes from entire male pigs
[10] = all concentrations tested (up to 100.0 µM), microsomes from mature male pigs
[11] = steroid 0.55, 1.0 and 100.0 µM, pooled microsomes from entire male pigs

SMILES: C[C@]12CC[C@@H]3c4ccc(O)cc4CC[C@H]3[C@@H]1CC[C@@H]2O [17β-estradiol]
- Inhibition of MROD activity (CYP1A2 [1]; [8]): inhibited
- Inhibition of MROD activity (CYP1A2 [1]; [9]): no inhibitory effect
- Inhibition of EROD activity (CYP1A1 [2]; [8]): inhibited
- Inhibition of EROD activity (CYP1A1 [2]; [9]): no inhibitory effect
- Effect on EROD activity (CYP1A1 [3]): did not alter
- Type of inhibition of PNPH (CYP2E1 [4]; microsomes from prepubertal male pigs, ref Zamaratskaia et al. ([2007])): mixed inhibitor
- Inhibition of PNPH activity (CYP2E1 [4]; physiological concentrations, ref Rasmussen et al. (2010a)): inhibit
- Inhibition of PNPH activity (CYP2E1 [5]; 100 µM steroid, pooled microsomes from three mature entire male pigs): Inhibition of PNPH activity was observed
- Inhibition of PNPH activity (CYP2E1 [5]; lower concentrations (0.02 and 1.0 µM), microsomes from mature male pigs): observed only in the presence of high concentrations

SMILES: C[C@]12CC[C@@H]3c4ccc(O)cc4CC[C@H]3[C@@H]1CC[C@H]2O [17α-estradiol]
- Inhibition of MROD activity (CYP1A2 [1]; [8]): inhibited
- Inhibition of MROD activity (CYP1A2 [1]; [9]): no inhibitory effect
- Inhibition of EROD activity (CYP1A1 [2]; [8]): inhibited
- Inhibition of EROD activity (CYP1A1 [2]; [9]): no inhibitory effect
- Inhibition of PNPH activity (CYP2E1 [5]; [10]): inhibited only by 100 µM of 17β-estradiol

SMILES: C[C@]12CC[C@H](O)C[C@@H]1CC[C@@H]1[C@@H]2CC[C@]2(C)C=CC[C@@H]12 [3β-androstenol]
- Inhibition of MROD activity (CYP1A2 [1]; [11]): only 17β-estradiol and 17α-estradiol inhibited
- Inhibition of EROD activity (CYP1A1 [2]; [11]): only 17β-estradiol and 17α-estradiol inhibited
- Inhibition of PNPH activity (CYP2E1 [5]; [10]): inhibited only by 100 µM of 17β-estradiol

SMILES: COc1ccc2nc3ccc(=O)cc-3oc2c1 [7-methoxy-resorufin, 7-methoxyresorufin]
- Km (CYP1A2 [6]): 0.13 µM

SMILES: CCOc1ccc2nc3ccc(=O)cc-3oc2c1 [7-ethoxyresorufin]
- Km (CYP1A1 [7]; high affinity component): 0.01 µM
- Km (CYP1A1 [7]; low affinity component): 1.7 µM
- Vmax, pmol/min/mg (CI) (CYP1A1 [7]; low affinity component): 15.2 (9.64–20.71) pmol/min/mg

SMILES: C[C@]12CCC(=O)C[C@@H]1CC[C@@H]1[C@@H]2CC[C@]2(C)[C@@H](O)CC[C@@H]12 [DHT, dihydrotestosterone]
- Magnitude of MROD inhibition (CYP1A2 [1]; steroid 0.55, 1.0 and 100.0 µM, relative to control incubations): ≤ 30%
- Inhibition of EROD activity (CYP1A1 [2]; [11]): only 17β-estradiol and 17α-estradiol inhibited
- Inhibition of PNPH activity (CYP2E1 [5]; [10]): inhibited only by 100 µM of 17β-estradiol
